Patent US4103011A, “Novel penicillin compounds and process for preparation thereof” (priority 1976, dated 1978)
Counter-ions that a name gives are not always drawn. Like-named read-outs stand apart in the source and are kept apart here.

Columns and labels:
[1] = test system: Corynebacterium pyogenes C-21; test: In vitro antibacterial activity (MIC); assay type: cell-based; settings: Rhodococcus (subgen. Prescottella) equi, C21, read-out: minimum inhibitory concentration (MIC)
Text: (§1) In vitro antibacterial activity against 20 strains of bacteria
(§2) The numerals in the table show minimum inhibitory concentrations (MIC)

[2] = test system: Enterobacter cloacae P-2540; test: In vitro antibacterial activity (MIC); assay type: cell-based; settings: Enterobacter cloacae, P2540, read-out: minimum inhibitory concentration (MIC)
Text: as §1, §2

[3] = test system: Escherichia coli NIHJ JC-2; test: In vitro antibacterial activity (MIC); assay type: cell-based; settings: Escherichia coli, NIHJJC2, read-out: minimum inhibitory concentration (MIC)
Text: as §1, §2

Escherichia coli P-140a = test: In vitro antibacterial activity (MIC); assay type: cell-based
Text: as §1, §2

Escherichia coli P-5101 [4] = test: In vitro antibacterial activity (MIC); assay type: cell-based; settings: P5101; Escherichia coli P-5101; read-out: minimum inhibitory concentration (MIC)
Text: as §1, §2

[5] = test system: Klebsiella pneumoniae No. 13; test: In vitro antibacterial activity (MIC); assay type: cell-based; settings: Klebsiella pneumoniae, NO.13, read-out: minimum inhibitory concentration (MIC)
Text: as §1, §2

Proteus mirabilis P-2381 = test: In vitro antibacterial activity (MIC); assay type: cell-based; settings: Proteus mirabilis, P2381, read-out: minimum inhibitory concentration (MIC)
Text: as §1, §2

Proteus morganii Kono = test: In vitro antibacterial activity (MIC); assay type: cell-based; settings: Morganella morganii, read-out: minimum inhibitory concentration (MIC)
Text: as §1, §2

Proteus rettgeri P-2503 = test: In vitro antibacterial activity (MIC); assay type: cell-based; settings: Providencia rettgeri, P2503; Proteus rettgeri P-2503; read-out: minimum inhibitory concentration (MIC)
Text: as §1, §2

[6] = test system: Pseudomonas aeruginosa No.12; test: In vitro antibacterial activity (MIC); assay type: cell-based; settings: Pseudomonas aeruginosa, NO.12, read-out: minimum inhibitory concentration (MIC)
Text: as §1, §2

[7] = test system: Pseudomonas aeruginosa Tsuchijima; test: In vitro antibacterial activity (MIC); assay type: cell-based; settings: Pseudomonas aeruginosa Tsuchijima; read-out: minimum inhibitory concentration (MIC)
Text: as §1, §2

[8] = test system: Salmonella enteritidis No. 1891; test: In vitro antibacterial activity (MIC); assay type: cell-based; settings: Salmonella enterica; Salmonella enteritidis No. 1891; read-out: minimum inhibitory concentration (MIC)
Text: as §1, §2

[9] = test system: Salmonella typhimurium S-9; test: In vitro antibacterial activity (MIC); assay type: cell-based; settings: Salmonella enterica; Salmonella typhimurium S-9; read-out: minimum inhibitory concentration (MIC)
Text: as §1, §2

[10] = test system: Serratia mercescens IFO 3736; test: In vitro antibacterial activity (MIC); assay type: cell-based; settings: IFO3736; Serratia mercescens IFO 3736; read-out: minimum inhibitory concentration (MIC)
Text: as §1, §2

Shigella flexneri 2a = test: In vitro antibacterial activity (MIC); assay type: cell-based; settings: read-out: minimum inhibitory concentration (MIC)
Text: as §1, §2

[11] = test system: Shigella flexneri 4a P-330; test: In vitro antibacterial activity (MIC); assay type: cell-based; settings: 4AP330, read-out: minimum inhibitory concentration (MIC)
Text: as §1, §2

[12] = test system: Staphylococcus aureus 209P JC-1; test: In vitro antibacterial activity (MIC); assay type: cell-based; settings: Staphylococcus aureus 209P JC-1; read-out: minimum inhibitory concentration (MIC)
Text: as §1, §2

[13] = test system: Staphylococcus aureus No. 50774; test: In vitro antibacterial activity (MIC); assay type: cell-based; settings: Staphylococcus aureus No. 50774; read-out: minimum inhibitory concentration (MIC)
Text: as §1, §2

[14] = test system: Streptococcus faecalis P-2473; test: In vitro antibacterial activity (MIC); assay type: cell-based; settings: Enterococcus faecalis, P2473, read-out: minimum inhibitory concentration (MIC)
Text: as §1, §2

[15] = test system: Streptococcus pyogenes 65A; test: In vitro antibacterial activity (MIC); assay type: cell-based; settings: Streptococcus pyogenes 65A; read-out: minimum inhibitory concentration (MIC)
Text: as §1, §2

[16] = test system: Staphylococcus aureus No. 50774; test: In vivo efficacy against systemic infection; parameters: species or system male mice (ddY); settings: NO.50774, in Mus musculus, 336 h, sc, twice, about 5 minutes and 6 hours after infection, read-out: ED50 (median effective dose)
Procedure, shortened: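 Male ddY mice (~20 g) infected intravenously with 50 to 100 LD50 (about 5 × 10^8 cells/mouse) of S. aureus No. 50774 in saline. Compounds in water or aqueous sodium carbonate (pH 8-9) dosed twice, about 5 minutes and 6 hours post-infection; ED50 (mg/kg) by Behrens-Kaerber method.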

Escherichia coli P-5101 [17] = test: In vivo efficacy against systemic infection; parameters: species or system male mice (ddY); settings: P5101, in Mus musculus, 168 h, twice, about 5 minutes and 6 hours after infection, read-out: ED50 (median effective dose)
Procedure, shortened: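 Male ddY mice of about 20g were infected intraperitoneally with E. coli P-5101 suspended in tryptosoy broth. Compounds dissolved in deionized water were given twice, about 5 minutes and 6 hours after infection. Effective dose was calculated by the Behrens-Kaerber method.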

[18] = test system: Pseudomonas aeruginosa No. 12; test: In vivo efficacy against systemic infection; parameters: species or system male mice (ddY); settings: for ED50: NO.12, in Mus musculus
Procedure, shortened: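 Male ddY mice (about 20 g) infected intraperitoneally with a Pseudomonas aeruginosa No. 12 suspension. Compounds in deionized water were given twice, about 5 minutes and 6 hours after infection. Effective dose calculated by the Behrens-Kaerber method.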

[19] = test system: bacteria (systemic infection); test: In vivo efficacy against systemic infection, overall conclusions; parameters: species or system male mice (ddY); settings: Table II
Experimental: The contents in the vials (No. A and No. C) prepared in Example 17 were each dissolved in deionized water, and injections having various concentrations were prepared.
Compounds A, B, F, G, H and M were dissolved in deionized water. Compounds C, D, E and J were dissolved in an aqueous solution of sodium carbonate (pH 8-9) to prepare injections of various concentrations.
Each of the injections was administered to mice under the conditions described below, and the median effective doses (ED50) obtained are shown in Table II.

**Q.** For `CC1(C)S[C@@H]2[C@H](NC(=O)[C@H](NC(=O)c3c[nH]c4nc(N5CCN(C=O)CC5)ncc4c3=O)c3ccc(O)cc3)C(=O)N2[C@H]1C(=O)O` [Compound 1, D-α-[5,8-Dihydro-2-(4-formyl-1-piperazinyl)-5-oxopyrido[2,3-d]pyrimidine-6-carboxamido]-p-hydroxybenzyl-penicillin sodium salt], which MIC [1] is on record?
**A.** Its MIC is 3.13 µg/mL.

**Q.** And the MIC [2]?
**A.** Its MIC is 6.25 µg/mL.

**Q.** What about the MIC [3] of the same compound?
**A.** The MIC was 3.13 µg/mL.

**Q.** And the “minimum inhibitory concentration (MIC)” value (Escherichia coli P-140a)?
**A.** Its value is 12.5 µg/mL.

**Q.** And the MIC (Escherichia coli P-5101 [4])?
**A.** The MIC was 1.56 µg/mL.

**Q.** And the MIC [5]?
**A.** Its MIC is 12.5 µg/mL.

**Q.** What about the MIC (Proteus mirabilis P-2381) of the same compound?
**A.** Its MIC is 3.13 µg/mL.

**Q.** And the MIC (Proteus morganii Kono)?
**A.** The MIC was 6.25 µg/mL.

**Q.** And the MIC (Proteus rettgeri P-2503)?
**A.** The MIC was 25 µg/mL.

**Q.** What about the MIC [6] of the same compound?
**A.** Its MIC is 3.13 µg/mL.

**Q.** And the MIC [7]?
**A.** The MIC was 0.78 µg/mL.

**Q.** What about the MIC [8] of the same compound?
**A.** Its MIC is 0.78 µg/mL.

**Q.** And the MIC [9]?
**A.** Its MIC is 0.78 µg/mL.

**Q.** What about the MIC [10] of the same compound?
**A.** The MIC was 6.25 µg/mL.

**Q.** And the MIC (Shigella flexneri 2a)?
**A.** The MIC was 3.13 µg/mL.

**Q.** And the MIC [11]?
**A.** The MIC was 3.13 µg/mL.

**Q.** And the MIC [12]?
**A.** Its MIC is 0.78 µg/mL.

**Q.** What about the MIC [13] of the same compound?
**A.** Its MIC is 1.56 µg/mL.

**Q.** And the MIC [14]?
**A.** Its MIC is 3.13 µg/mL.

**Q.** And the MIC [15]?
**A.** Its MIC is 0.006 µg/mL.

**Q.** And the ED50 [16]?
**A.** Its ED50 is 2.1 mg/kg.

**Q.** And the ED50 (Escherichia coli P-5101 [17]; iv)?
**A.** The ED50 was 2.9 mg/kg.

**Q.** What about the ED50 (Escherichia coli P-5101 [17]; sc) of the same compound?
**A.** The ED50 was 3.7 mg/kg.

**Q.** What about the ED50 ([18]; iv, twice, about 5 minutes and 6 hours after infection, read-out: ED50 (median effective dose)) of the same compound?
**A.** The ED50 was 4.1 mg/kg.

**Q.** What about the ED50 ([18]; parenteral administration, compounds 1 and 2 together, read-out: ED50) of the same compound?
**A.** Its ED50 is 2 to 6 mg/kg.

**Q.** And the ED50 ([18]; sc, twice, about 5 minutes and 6 hours after infection, read-out: ED50 (median effective dose))?
**A.** Its ED50 is 2.1 mg/kg.

**Q.** And the “antibacterial activity compared with compounds J and H (in words)” value ([18]; parenteral administration)?
**A.** The value was “far superior antibacterial activity”.

**Q.** And the “antibacterial activity relative to compounds B and C (times as high)” value ([18]; parenteral administration)?
**A.** The value was 3 to 25 times.

**Q.** And the “antibacterial activity relative to compounds D and E (times as high)” value ([18]; parenteral administration)?
**A.** Its value is 6 to 20 times.

**Q.** And the “antibacterial activity in vivo (in words)” value [19]?
**A.** The value was “excellent antibacterial activity in vivo”.
